In patent publication US11465972B2, “Inhibitors of oxidized low-density lipoprotein receptor 1 and methods of use thereof” (United States Government as represented by the Department …, priority 2015, dated 2022):
Entries after “also recorded” stand apart in the source; their conditions may differ.

Columns and labels:
Type in all cases: cell-based, human
HUVECs = assay: Dil-ox-LDL uptake by HUVECs (flow cytometry); settings: for effect on ox-LDL uptake by HUVECs (in words): 200 nM compound; for reduction of the uptake of ox-LDL by HUVECs: 200 nM concentration
Procedure: (§1) FIG. 3A, FIG. 3B, FIG. 3C and FIG. 3D depict the inhibitory effect of the lead compounds on Dil-ox-LDL uptake by HUVECs and CHO cells (measured by flow cytometry) and the effect of the lead compounds on ox-LDL-induced LOX-1 mRNA and protein expression. (FIG. 3A) (Upper Panel) Flow cytometry measurements using HUVECs in the presence of the five lead compounds (Mol-1-Mol-5), each a at 200 nM concentration. (Lower Panel) The percentage of internalized ox-LDL. Graphs show data as mean (±SD); n=4. *P<0.01 or <0.05 vs. control. (FIG. 3B) IC50 value for Mol-5. IC50 value (in nM) is based on inhibition of Dil-ox-LDL uptake in CHO cells overexpressing human LOX-1. Graphs show data as mean (±SD); n=5. *P<0.01 or <0.05 vs. control. (FIG. 3C) Western blotting assay showing LOX-1 protein expression in HUVECs following incubation with 200 nM Mol-1 to Mol-5 for 30 min, and subsequently exposure to 5 μg/mL ox-LDL for 6 hours. (FIG. 3D) The variation of LOX-1 mRNA expression levels at different concentrations of the compounds following exposure of HUVECs to 5 μg/mL ox-LDL. The concentrations are indicated on the X-axis and the LOX-1 mRNA levels are shown on the Y-axis. The plots for all the five molecules are shown in separate colors. Graphs show data as mean (±SD); n=3. *P<0.01 vs. control; #P<0.01 vs. ox-LDL group.
For further characterization, human endothelial cells and fluorescently-labeled Dil-ox-LDL were used for measuring initiation of atherogenic process based on interaction of vascular wall with ox-LDL. Ox-LDL uptake by human umbilical vein endothelial cells (HUVECs) was measured after exposure to 200 nM of each compound using flow cytometry. […] The dose response to modulation of ox-LDL uptake by Mol-5 (0, 20, 200 and 2000 nM) was also measured in CHO cells overexpressing human LOX-1. […] A second dose response curve was conducted to narrow in on the effect of lower concentrations of Mol-5 on ox-LDL uptake (FIG. 6A). Using this information the EC50 was estimated to be […] (FIG. 6B).
The primary HUVECs were purchased from ATCC (Manassas, Va.) and cultured in vascular cell basal medium with supplements (including 10 mL fetal bovine serum, 10 mM L-glutamine, 0.5 tg hydrocortisone hem isuccinate, 25 tg ascorbic acid, 2.5 ng rhVEGF, 2.5 ng rhEGF, 2.5 ng rh FGF, 7.5 ng rhIGF-1 and 0.375 units heparin sulfate). Cells from passages 3 and 4 were used in this study.
HUVECs were plated into 6-well plates and cultured until the cells reached 70% confluence. The cells were exposed to […] Dil-ox-LDL for 30 min after treatment with 200 nM of each of 5 molecules for 30 min, and then washed with PBS for 3 times. After washing, the cells were digested with trypsin and washed with PBS, and suspended in 400 tL PBS, and analyzed with a flow-cytometer (Becton Dickinson, Mountain View, Calif.). For further confirm the inhibitory effects of Mol-5 on Dil-ox-LDL uptake, we also measured Dil-ox-LDL uptake by CHO cells after exposure to […] Mol-5 for 30 min. The CHO cells were stably transfected with human LOX-1 cDNA.

P38 MAPK = assay: ox-LDL-induced activation (phosphorylation) of P38 MAPK in HUVECs (Western blotting); settings: 200 nM
Procedure: FIG. 4A, FIG. 4B, FIG. 4C, FIG. 4D and FIG. 4E depict the effect of lead molecules on ox-LDL-induced the activation of MAPKs in HUVECs, VCAM-1 expression and monocyte adhesion onto HUVECs. […] (FIG. 4B) Western blot analyses showing phospho-p38MAPK expression in HUVECs following exposure to 200 nM of each compound for 30 min, and subsequently exposed to 5 μg/mL ox-LDL for 6 hours. […] (FIG. 4D) The variation of VCAM-1 mRNA expression levels with different concentrations of the led compounds. The concentrations are indicated on the X-axis and the VCAM-1 mRNA levels are shown on the Y-axis. The plots for all five molecules are shown in separate colors. […] Graphs show data as mean (±SD); n=3 (for Western blot and PCR assays) or n=20 (for monocyte adhesion assay). *P<0.01 vs. control; #P<0.01 or <0.05 vs. ox-LDL group.
To assess downstream effects of each candidate molecule, ox-LDL induced expression and activation of ERK1/2 and P38MAPK was measured in HUVECs in the absence or presence of each candidate molecule (200 nM). […] Importantly, unphosphorylated MAPKs were not affected by any of the candidate molecules.
HUVECs were plated into 6-well cell culture plates. When the cells were reached 70% confluence, they were treated with 200 nM of each of 5 molecules for 30 min, and subsequently exposed to […] ox-LDL for 6 h. After washing with PBS for 2 times, the cells were treated with Cell Lysis Buffer (Promega, Madison, Wis.) with protease Inhibitor and phosphatase Inhibitor (Sigma-Aldrich, St. Louis, Mo.). The protein concentrations were measured by Bradford protein assay. Proteins (20 tg) were separated by electrophoresis in 12% precast SDS-PAGE gels, and were transferred onto Nitrocellulose Blotting Membrane (GE Healthcare Life Science, Piscataway, N.J.). The membranes were then incubated with LOX-1, VCAM-1 (Abcam, Cambridge, Mass.), ERK1/2, phospho-ERK1/2, phospho-p38MAPK (Cell Signaling Technology, Inc., Danvers, Mass.), or […] (Santa Cruz Biotechnology, Inc., Dallas, Tex.) primary antibodies (1:1000˜1:2000) in blocking solution at 4° C. overnight. Following wash with TBS-1 for 3 times, the blots were incubated with HRP-conjugated secondary antibodies (1:10000) in blocking solution for 1 hour at room temperature. After 3 washes with PBS, the blots were treated with Western Blotting Luminol Reagents (Santa Cruz Biotechnology) for 3 min and then exposed to Blue Basic Autorad Film (GeneMate, Kaysville, Utah). The protein bands were scanned by a Gel Doc™ XR System (Bio-Rad, Hercules, Calif.), and the density of each band was quantified by Image J software. The relative expression of target proteins was calculated with comparison to […] bands.

LOX-1 protein expression = assay: ox-LDL-induced LOX-1 protein expression in HUVECs (Western blotting); settings: 200 nM, 5 μg/ml ox-LDL
Procedure: as §1
Internalization of ox-LDL via binding to LOX-1 activates endothelial cells and upregulates the expression of LOX-1^2. In this study, it was tested if the lead molecules would inhibit LOX-1 expression. Accordingly, LOX-1 protein expression in HUVECs was measured by Western blotting.
HUVECs were plated into 6-well cell culture plates. […] The protein concentrations were measured by Bradford protein assay. […] The protein bands were scanned by a Gel Doc™ XR System (Bio-Rad, Hercules, Calif.), and the density of each band was quantified by Image J software. The relative expression of target proteins was calculated with comparison to […] bands.

Row | SMILES | effect on ox-LDL uptake by HUVECs (in words) (HUVECs) | effect on ox-LDL-induced activation of P38 MAPK (in words) (P38 MAPK) | reduction of the uptake of ox-LDL by HUVECs (HUVECs) | effect on ox-LDL-induced LOX-1 protein expression (LOX-1 protein expression) | reduction of the level of phospho-P38 MAPK (P38 MAPK)
1 | CC(C)(C)C(=O)NCCc1nc2ccccc2n1Cc1ccccc1F [Mol-2] | no significant effect | no significant effect |  |  | 
2 | CCCn1c(CCNC(=O)CCCO)nc2ccccc21 [Mol-4] | significantly and potently inhibited | significantly inhibited | 65% | significantly reduced | around 60%
3 | CCOCCCNC(=O)CCN1C(=O)COc2ccccc21 [Mol-1] | moderate inhibitory effect | significantly inhibited | about 35% | significantly reduced | around 60%
4 | Cc1cc(C)n(CC(O)COc2ccccc2)n1 (centres unmarked) [Mol-5, 1-(3,5-dimethyl-1H-pyrazol-1-yl)-3-phenoxypropan-2-ol] | significantly and potently inhibited; also recorded: maximum inhibitory effect | significantly inhibited; also recorded: maximum inhibition | 80% | significantly reduced | 75%
